# Measured values as given in US6544991B2, “Compositions and methods for treating bacterial infections” (priority 2000, dated 2003).
# Where two headings read alike, the source gives them in different places.
# Legend:
# Staph. aureus 29213 = test: MIC, quality control strain; assay type: cell-based; settings: Staphylococcus aureus, read-out: MIC Values
# Method: (§1) Bacterial isolates were obtained from human infections. The isolates were maintained frozen in a liquid nitrogen freezer and plated on Trypticase Soy Agar (TSA) plates supplemented with 5% sheep blood. The quality control strain Staph. aureus 29213 was originally acquired from the American Type Culture Collection (Rockville, Md.).
# (§2) MICs were determined by an agar dilution method or microbroth dilution method recommended by NCCLS. Synergy was assessed by agar dilution checker-board method. Minimal inhibitory concentrations (MICS) for each separate drug were determined. The fractional inhibitory concentration (FIC) values were calculated by the MIC of Drug A (e.g., sulbactam/ampicillin) and Drug B (e.g., linezolid or arbekacin) in combination/MIC of Drug A or B alone. The FIC index was determined according to the following formula: [formula]
# VRSA strains = test: MIC by agar dilution or microbroth dilution method (NCCLS), VRSA strains; assay type: cell-based, Staph. aureus; settings: VRSA strains (n = 10); for MIC: Staphylococcus aureus
# Method: as §1, §2
# In total, 48 MRSA strains were tested, including ten VRSA strains isolated from five different countries in the world, 33 MRSA strains isolated from ten Japanese university hospitals, and five MRSA type strains from Juntendo University, Department of Bacteriology, Tokyo, Japan.
# MRSA strains = test: MIC by agar dilution or microbroth dilution method (NCCLS); assay type: cell-based, Staph. aureus; design: MIC50: unit not given beside the values; settings: for MIC: Staphylococcus aureus
# Method: as §1, §2
compound,measurement,setting,value
"CC(=O)NC[C@H]1CN(c2ccc(N3CCOCC3)c(F)c2)C(=O)O1 [LZD, (S)-N-[[3-[3-fluoro-4-(4-morpholinyl)phenyl]-2-oxo-5-oxazolidinyl]methyl]acetamide]",MIC,"Staph. aureus 29213; ATCC29213, strain ATCC 29213, control sample (Ex. 26)",2 mg/L
same,MIC,"Staph. aureus 29213; ATCC29213, strain ATCC29213, control sample (Ex. 37)",2 mg/L
same,MIC,VRSA strains; read-out: MICs 50%,2 mg/L
same,MIC,VRSA strains; read-out: MICs 90%,2 mg/L
same,MICs Range,VRSA strains,1 to 2 mg/L
same,MIC50,"MRSA strains; 48 MRSA strains tested, including ten VRSA strains",2
same,MICs Range,MRSA strains; MRSA strains (n = 38),0.5 to 2 mg/L
same,MIC,"MRSA strains; MRSA / NCTC 10442, strain NCTC 10442, read-out: MIC Values",2 mg/L
same,MIC,"MRSA strains; MRSA, MRSA strains (n = 38), read-out: MICs 50%",2 mg/L
same,MIC,"MRSA strains; MRSA, MRSA strains (n = 38), read-out: MICs 90%",2 mg/L
same,MIC,"MRSA strains; MRSA, strain 85/2082, read-out: MIC Values",2 mg/L
same,MIC,"MRSA strains; MRSA, strain 99.3700W, read-out: MIC Values",2 mg/L
same,MIC,"MRSA strains; MRSA, strain 99.3759V, read-out: MIC Values",2 mg/L
same,MIC,"MRSA strains; MRSA, strain AMC 11094, read-out: MIC Values",2 mg/L
same,MIC,"MRSA strains; MRSA, strain BM12612(new), read-out: MIC Values",2 mg/L
same,MIC,"MRSA strains; MRSA, strain H1, read-out: MIC Values",2 mg/L
same,MIC,"MRSA strains; MRSA, strain HIP 5827, read-out: MIC Values",2 mg/L
same,MIC,"MRSA strains; MRSA, strain HIP 5836, read-out: MIC Values",2 mg/L
same,MIC,"MRSA strains; MRSA, strain HIP 6297, read-out: MIC Values",2 mg/L
same,MIC,"MRSA strains; MRSA, strain HIP 7737, read-out: MIC Values",2 mg/L
same,MIC,"MRSA strains; MRSA, strain JSCC 340, read-out: MIC Values",2 mg/L
same,MIC,"MRSA strains; MRSA, strain JSCC 351, read-out: MIC Values",2 mg/L
same,MIC,"MRSA strains; MRSA, strain JSCC 363, read-out: MIC Values",2 mg/L
same,MIC,"MRSA strains; MRSA, strain JSCC 381, read-out: MIC Values",2 mg/L
same,MIC,"MRSA strains; MRSA, strain JSCC 390, read-out: MIC Values",2 mg/L
same,MIC,"MRSA strains; MRSA, strain JSCC 401, read-out: MIC Values",2 mg/L
same,MIC,"MRSA strains; MRSA, strain JSCC 413, read-out: MIC Values",2 mg/L
same,MIC,"MRSA strains; MRSA, strain JSCC 431, read-out: MIC Values",2 mg/L
same,MIC,"MRSA strains; MRSA, strain JSCC 440, read-out: MIC Values",2 mg/L
same,MIC,"MRSA strains; MRSA, strain JSCC 451, read-out: MIC Values",2 mg/L
same,MIC,"MRSA strains; MRSA, strain JSCC 463, read-out: MIC Values",2 mg/L
same,MIC,"MRSA strains; MRSA, strain JSCC 481, read-out: MIC Values",2 mg/L
same,MIC,"MRSA strains; MRSA, strain JSCC 490, read-out: MIC Values",2 mg/L
same,MIC,"MRSA strains; MRSA, strain JSCC 501, read-out: MIC Values",2 mg/L
same,MIC,"MRSA strains; MRSA, strain JSCC 513, read-out: MIC Values",1 mg/L
same,MIC,"MRSA strains; MRSA, strain JSCC 531, read-out: MIC Values",1 mg/L
same,MIC,"MRSA strains; MRSA, strain JSCC 540, read-out: MIC Values",1 mg/L
same,MIC,"MRSA strains; MRSA, strain JSCC 551, read-out: MIC Values",2 mg/L
same,MIC,"MRSA strains; MRSA, strain JSCC 563, read-out: MIC Values",1 mg/L
same,MIC,"MRSA strains; MRSA, strain JSCC 581 (lacks the mecA gene), read-out: MIC Values",2 mg/L
same,MIC,"MRSA strains; MRSA, strain JSCC 590 (lacks the mecA gene), read-out: MIC Values",2 mg/L
same,MIC,"MRSA strains; MRSA, strain JSCC 601, read-out: MIC Values",1 mg/L
same,MIC,"MRSA strains; MRSA, strain JSCC 640, read-out: MIC Values",1 mg/L
same,MIC,"MRSA strains; MRSA, strain JSCC 651, read-out: MIC Values",2 mg/L
same,MIC,"MRSA strains; MRSA, strain JSCC 663, read-out: MIC Values",2 mg/L
same,MIC,"MRSA strains; MRSA, strain JSCC 681, read-out: MIC Values",0.5 mg/L
same,MIC,"MRSA strains; MRSA, strain JSCC 690, read-out: MIC Values",1 mg/L
same,MIC,"MRSA strains; MRSA, strain JSCC 701, read-out: MIC Values",1 mg/L
same,MIC,"MRSA strains; MRSA, strain JSCC 713, read-out: MIC Values",2 mg/L
same,MIC,"MRSA strains; MRSA, strain JSCC 731, read-out: MIC Values",1 mg/L
same,MIC,"MRSA strains; MRSA, strain JSCC 740, read-out: MIC Values",2 mg/L
same,MIC,"MRSA strains; MRSA, strain JSCC 751, read-out: MIC Values",2 mg/L
same,MIC,"MRSA strains; MRSA, strain JSCC 763, read-out: MIC Values",2 mg/L
same,MIC,"MRSA strains; MRSA, strain JSCC 781, read-out: MIC Values",2 mg/L
same,MIC,"MRSA strains; MRSA, strain JSCC 870, read-out: MIC Values",2 mg/L
same,MIC,"MRSA strains; MRSA, strain LIM 2, read-out: MIC Values",1 mg/L
same,MIC,"MRSA strains; MRSA, strain Mu 3, read-out: MIC Values",2 mg/L
same,MIC,"MRSA strains; MRSA, strain Mu 50, read-out: MIC Values",2 mg/L
same,susceptibility (range of MICs),"MRSA strains; all tested MRSA isolates, including VRSA strains",susceptible range of MICs
